Laboratory results reported in US20210254056A1, “IDENTIFICATION AND TARGETED MODULATION OF GENE SIGNALING NETWORKS” (CAMP4 THERAPEUTICS CORPORATION, priority 2017, published 2021).
Like-named read-outs stand apart in the source and are kept apart here. Blank lines part the entries; values can stand above or below the compound they belong to.

Tests used:
TF1 cells = assay: Biological activity of maximal compound dosages in TF1 cells; type: cell-based; settings: 10 μM dose
Experimental: (§1) The stock for each compound was at 10 mM and were diluted to 100 μM with RMPI+GCMSF (2% DMSO). Cells were collected and resuspended in 8 mL of RPMI+GMCSF at a concentration of 1×10^6 cells/mL. For the TF1 cells, at each well of a 6-well plate were added 1 mL of cells, 300 μL of 100 μM compound dilution, and 1.7 mL of RMPI+GCMSF+1.5% DMSO (1% final DMSO concentration in 3 mL total). One mL of the CI-CB-CD34+ cells, 300 μL of 100 μM compound dilution, and 700 μL of RMPI+GCMSF ([…]) were added to each well of a 6-well plate.
(§2) Compound dilutions were performed as described in Example 1. […] In a 6-well format, there were 1 million cells/well=1 million cells/ml=1000 cells/pl. […].

CI-CB-CD34+ cells = assay: Biological activity of maximal compound dosages in CI-CB-CD34+ cells; type: cell-based, human; settings: 10 μM dose
Experimental: as §1, §2

[1] = system: primary human hepatocytes
[2] = system: primary human hepatocytes; assay: RNA-seq of primary human hepatocytes treated with 39 small molecules (pilot and validation)

SMILES: Cc1ccc(-c2cn3c4c(sc3n2)CCCC4)cc1 [Cyclic-pifithrin alpha, Cyclic Pifithrin-a]
response of TF1 cells (biological activity, cell viability) (TF1 cells): did not significantly respond

SMILES: COc1ccc(C2=N[C@@H](c3ccc(Cl)cc3)[C@@H](c3ccc(Cl)cc3)N2C(=O)N2CCNC(=O)C2)c(OC(C)C)c1 (racemic) [Nutlin 3]
response of TF1 cells (biological activity, cell viability) (TF1 cells): did not significantly respond
biological activity of CD34+ cells (cell viability) (CI-CB-CD34+ cells): reduced biological activity

SMILES: COc1ccc(C2=N[C@@H](c3ccc(Cl)cc3)[C@@H](c3ccc(Cl)cc3)N2C(=O)N2CCNC(=O)C2)c(OC(C)C)c1 [Nutlin 3a]
response of TF1 cells (biological activity, cell viability) (TF1 cells): did not significantly respond
biological activity of CD34+ cells (cell viability) (CI-CB-CD34+ cells): reduced biological activity

SMILES: CN(C)CCC=C1c2ccccc2COc2ccccc21 [MT-723, Adapin (doxepin)]
Log2 fold changes in gene expression: CYP2C19 [1]: 0.18
Log2 fold changes in gene expression: CYP3A4 [1]: 0.14
Log2 fold changes in gene expression: ACADVL [2]: 0
Log2 fold changes in gene expression: ACAT2 [2]: −0.03
Log2 fold changes in gene expression: ACSL1 [2]: 0.04
Log2 fold changes in gene expression: ACSL5 [2]: 0.03
Log2 fold changes in gene expression: AGPAT2 [2]: −0.05
Log2 fold changes in gene expression: AGTR1 [2]: 0.03
Log2 fold changes in gene expression: AHSG [2]: −0.07
Log2 fold changes in gene expression: ALAS1 [2]: −0.01
Log2 fold changes in gene expression: AMACR [2]: −0.11
Log2 fold changes in gene expression: ARG1 [2]: 0.07
Log2 fold changes in gene expression: CA2 [2]: −0.08
Log2 fold changes in gene expression: CA12 [2]: 0.29
Log2 fold changes in gene expression: CIDEC [2]: 0.09
Log2 fold changes in gene expression: COL1A1 [2]: −0.14
Log2 fold changes in gene expression: CPS1 [2]: −0.04
Log2 fold changes in gene expression: CPT1A [2]: 0.06
Log2 fold changes in gene expression: CPT2 [2]: −0.09
Log2 fold changes in gene expression: CYP21A2 [2]: 0.08
Log2 fold changes in gene expression: ECH1 [2]: −0.04
Log2 fold changes in gene expression: ENO3 [2]: −0.21
Log2 fold changes in gene expression: ETFDH [2]: 0.05
Log2 fold changes in gene expression: FABP1 [2]: −0.08
Log2 fold changes in gene expression: G6PC [2]: 0.03
Log2 fold changes in gene expression: GHR [2]: −0.05
Log2 fold changes in gene expression: GLA [2]: 0.01
Log2 fold changes in gene expression: HGD [2]: 0
Log2 fold changes in gene expression: HMGCR [2]: 0.02
Log2 fold changes in gene expression: HMGCS2 [2]: −0.04
Log2 fold changes in gene expression: HMOX1 [2]: 0.22
Log2 fold changes in gene expression: HOGA1 [2]: 0.03
Log2 fold changes in gene expression: HPGD [2]: 0.05
Log2 fold changes in gene expression: IFT27 [2]: 0
Log2 fold changes in gene expression: LDHA [2]: −0.09
Log2 fold changes in gene expression: LPIN2 [2]: 0.03
Log2 fold changes in gene expression: MOGAT2 [2]: 0.01
Log2 fold changes in gene expression: NCF2 [2]: −0.21
Log2 fold changes in gene expression: PCSK9 [2]: 0.11
Log2 fold changes in gene expression: POR [2]: 0.1
Log2 fold changes in gene expression: RMRP [2]: −0.14
Log2 fold changes in gene expression: SLC2A2 [2]: −0.04
Log2 fold changes in gene expression: SLC6A6 [2]: 0.17
Log2 fold changes in gene expression: SLC25A20 [2]: −0.1
Log2 fold changes in gene expression: SLC37A4 [2]: −0.17
Log2 fold changes in gene expression: SLC51B [2]: −0.26
Log2 fold changes in gene expression: SULT2A1 [2]: 0.03
Log2 fold changes in gene expression: TAT [2]: −0.1
Log2 fold changes in gene expression: TDO2 [2]: −0.14
Log2 fold changes in gene expression: TMEM135 [2]: 0.05
Log2 fold changes in gene expression: TNFSF11 [2]: −0.11
Log2 fold changes in gene expression: VLDLR [2]: 0.01
significant modulation of gene expression [2]: significantly (p-value≤0.05) modulate

SMILES: Cc1ccc(C(=O)Cn2c3c(sc2=N)CCCC3)cc1 [Pifithrin alpha, Pifithrin-α]
response of TF1 cells (biological activity, cell viability) (TF1 cells): did not significantly respond
biological activity of CD34+ cells (cell viability) (CI-CB-CD34+ cells): little or no effect

Log2 fold changes in gene expression: CYP2C19 [1]: 0.04
Log2 fold changes in gene expression: CYP3A4 [1]: 0
SMILES: CCN1CCCC1CNC(=O)c1cc(S(N)(=O)=O)ccc1OC (stereo not shown) [MT-277, Sulpiride]
significant modulation of gene expression ([2]; RNA-seq, p-value≤0.05, primary human hepatocytes, the modulated genes are listed in the block): significantly (p-value≤0.05) modulate
Number (#) of genes having significantly changed expression ([2]; pilot RNA-seq study of Example 2, significance: FPKM≥0.5, log 2(fold change)≥1, q-value ≤0.05): 8
